Reference: US12084453B2, “Bicyclic amines as CDK12 inhibitors” (Incyte Corporation, priority 2021, dated 2024)

The compounds below were run against T1, CDK12 complexed with Cyclin K (Homo sapiens, UniProt Q9NYV4) (assay: CDK enzymatic assay (HTRF, LANCE Ultra kinase assay)). Settings: 60 minutes pre-incubation with compound; 1 mM ATP.
T1 construct: GST (N); host or cells: baculovirus expression system
T1 sequence (Q9NYV4 whole entry): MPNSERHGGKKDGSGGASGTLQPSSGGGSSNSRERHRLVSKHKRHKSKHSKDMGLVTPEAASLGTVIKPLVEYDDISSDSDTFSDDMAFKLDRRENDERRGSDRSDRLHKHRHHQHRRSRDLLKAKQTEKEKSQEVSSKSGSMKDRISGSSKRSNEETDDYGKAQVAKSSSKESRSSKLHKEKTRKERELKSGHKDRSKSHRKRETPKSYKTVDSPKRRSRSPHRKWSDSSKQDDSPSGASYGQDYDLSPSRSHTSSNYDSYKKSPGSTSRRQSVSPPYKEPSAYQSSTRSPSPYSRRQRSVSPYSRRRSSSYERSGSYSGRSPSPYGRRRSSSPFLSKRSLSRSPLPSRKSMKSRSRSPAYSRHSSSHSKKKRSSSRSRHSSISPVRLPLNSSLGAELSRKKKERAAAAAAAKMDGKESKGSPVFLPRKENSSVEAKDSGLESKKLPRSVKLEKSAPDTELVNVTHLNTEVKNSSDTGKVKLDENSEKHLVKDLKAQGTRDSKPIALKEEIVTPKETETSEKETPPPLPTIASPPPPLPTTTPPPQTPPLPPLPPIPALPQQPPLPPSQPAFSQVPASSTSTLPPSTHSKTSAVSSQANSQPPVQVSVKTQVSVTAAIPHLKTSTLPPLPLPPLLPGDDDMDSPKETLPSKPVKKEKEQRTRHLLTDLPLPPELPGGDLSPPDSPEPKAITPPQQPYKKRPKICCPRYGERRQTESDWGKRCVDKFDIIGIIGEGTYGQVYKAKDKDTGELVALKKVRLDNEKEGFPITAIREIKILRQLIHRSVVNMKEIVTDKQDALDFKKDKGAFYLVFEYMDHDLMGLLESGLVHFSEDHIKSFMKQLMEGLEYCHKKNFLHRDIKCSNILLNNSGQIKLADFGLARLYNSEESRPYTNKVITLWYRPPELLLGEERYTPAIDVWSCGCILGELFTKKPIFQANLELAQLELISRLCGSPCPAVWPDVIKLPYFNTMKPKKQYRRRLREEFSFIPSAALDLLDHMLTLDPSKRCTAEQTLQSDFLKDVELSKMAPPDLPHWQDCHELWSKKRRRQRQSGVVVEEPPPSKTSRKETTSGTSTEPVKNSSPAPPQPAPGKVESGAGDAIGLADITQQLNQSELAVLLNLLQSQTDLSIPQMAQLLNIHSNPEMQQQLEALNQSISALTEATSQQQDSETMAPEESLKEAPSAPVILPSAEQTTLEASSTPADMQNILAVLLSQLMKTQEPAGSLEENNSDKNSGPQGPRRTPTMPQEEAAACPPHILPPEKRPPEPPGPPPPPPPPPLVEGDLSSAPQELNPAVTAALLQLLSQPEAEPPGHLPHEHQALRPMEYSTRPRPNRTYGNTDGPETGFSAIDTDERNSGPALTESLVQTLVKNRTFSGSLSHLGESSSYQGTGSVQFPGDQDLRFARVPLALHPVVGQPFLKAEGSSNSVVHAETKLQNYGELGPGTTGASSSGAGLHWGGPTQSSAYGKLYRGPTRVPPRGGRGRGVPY
T1 sequence (O75909 whole entry partner): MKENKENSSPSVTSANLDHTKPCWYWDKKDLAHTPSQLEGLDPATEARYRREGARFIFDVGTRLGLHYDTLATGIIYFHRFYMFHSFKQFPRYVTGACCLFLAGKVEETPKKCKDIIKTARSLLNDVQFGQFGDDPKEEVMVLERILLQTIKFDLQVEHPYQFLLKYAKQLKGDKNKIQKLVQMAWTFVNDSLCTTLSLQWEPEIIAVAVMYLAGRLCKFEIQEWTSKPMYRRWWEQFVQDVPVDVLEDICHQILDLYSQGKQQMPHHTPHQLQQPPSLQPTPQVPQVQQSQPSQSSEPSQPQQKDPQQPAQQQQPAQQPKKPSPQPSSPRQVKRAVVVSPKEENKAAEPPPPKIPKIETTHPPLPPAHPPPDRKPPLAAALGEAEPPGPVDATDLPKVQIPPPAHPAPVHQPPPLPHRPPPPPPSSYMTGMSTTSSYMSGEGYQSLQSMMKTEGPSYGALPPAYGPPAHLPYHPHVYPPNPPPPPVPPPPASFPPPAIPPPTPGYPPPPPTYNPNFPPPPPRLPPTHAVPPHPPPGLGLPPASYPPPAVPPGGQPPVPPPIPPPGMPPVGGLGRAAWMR
Type: biochemical
Procedure: The following activity of the CDK enzymes in complex with their respective cyclins we assayed: CDK1 complexed with Cyclin B1; CDK2 complexed with Cyclin E1; CDK4 complexed with Cyclin D1; CDK6 complexed with Cyclin D1; CDK6 complexed with Cyclin D3; CDK9 complexed with Cyclin T1; CDK7 complexed with Cyclin H/MAT1; CDK2 complexed with Cyclin A2; CDK5 complexed with p35; CDK12 complexed with Cyclin K; CDK13 complexed with Cyclin K. These in vitro enzyme activity are assayed using homogeneous time-resolved energy transfer (HTRF), which measures phosphorylation of a peptide substrate. The LANCE® Ultra kinase assay (PerkinElmer) uses a ULight™-labeled EIF4E-binding protein 1 (THR37/46) peptide (DYSTTPGGTLFSTTPGTRI (SEQ ID NO: 1)) substrate and a Europium-labeled anti-phospho-4E-BP1 antibody (CDK2, CDK1, CDK4, CDK6, CDK9, CDK12, CDK13) or ULight™-labeled Myelin Basic Protein peptide (VTPRTPPP (SEQ ID NO: 2)) substrate and a Europium-labeled anti-phospho-MBP antibody (CDK7). Each CDK enzyme activity assays utilized human CDK co-expressed as N-terminal GST-tagged protein with its full length cyclin partner using a baculovirus expression system.
Enzyme was pre-incubated with compounds for 30 minutes (CDK1,2,4,6,9) or 60 minutes (CDK7, CDK12, CDK13) prior to addition of ATP and Ulight-peptide (1 mM and 50 nM final, respectively), in assay buffer containing 50 mM HEPES pH 7.5, 1 mM EGTA, 10 mM MgCl2, 2 mM DTT, 0.05 mg/mL BSA, and 0.01% Tween 20. The reaction was then incubated for 60-90 minutes at room temperature. The reactions were stopped by the addition of EDTA and Europium labeled antibody, for a final concentration of 15 mM and 1.0-1.5 nM, respectively. HTRF signals were read after 15-120 minutes. A ratio of fluorescence transferred to the labeled substrate (665 nm) relative to fluorescence of the Europium donor (620 nm) represents the extent of phosphorylation. Ratios for treated wells were normalized to DMSO only (100% activity) and no enzyme (0% activity) controls. Normalized data was analyzed using a three or four parameter dose response curve to determine IC50 for each compound and are shown in Table A. Control reference inhibitors were included on each plate.
With `C=CC(=O)N(C)c1ccc(C(=O)N2CC[C@@H](Nc3nc4ccc(-c5cn[nH]c5)c(C(C)C)n4n3)C2)cc1` [Example 25, (R)-N-(4-(3-((5-Isopropyl-6-(1H-pyrazol-4-yl)-[1,2,4]triazolo[1,5-a]pyridin-2-yl)amino)pyrrolidine-1-carbonyl)phenyl)-N-methylacrylamide] the IC50 was under 50 nM. In the case of `C=C(F)C(=O)Nc1ccc(C(=O)N2CC[C@@H](Nc3nc4ccc(-c5cn[nH]c5)c(C(C)C)n4n3)C2)cc1` [Example 26, (R)-2-Fluoro-N-(4-(3-((5-isopropyl-6-(1H-pyrazol-4-yl)-[1,2,4]triazolo[1,5-a]pyridin-2-yl)amino)pyrrolidine-1-carbonyl)phenyl)acrylamide], the IC50 is reported as under 50 nM. For `C=CC(=O)Nc1ccc2sc(N3CCC[C@@H](Nc4nc5ccc(-c6cn[nH]c6)c(C(C)C)n5n4)C3)nc2c1` [Example 27, (R)-N-(2-(3-((5-Isopropyl-6-(1H-pyrazol-4-yl)-[1,2,4]triazolo[1,5-a]pyridin-2-yl)amino)piperidin-1-yl)benzo[d]thiazol-5-yl)acrylamide], the IC50 was under 50 nM. With `C=CC(=O)Nc1ccc2c(c1)nc(N1CCC[C@@H](Nc3nc4ccc(-c5cn[nH]c5)c(C(C)C)n4n3)C1)n2C` [Example 28, (R)-N-(2-(3-((5-Isopropyl-6-(1H-pyrazol-4-yl)-[1,2,4]triazolo[1,5-a]pyridin-2-yl)amino)piperidin-1-yl)-1-methyl-1H-benzo[d]imidazol-5-yl)acrylamide] the IC50 was under 50 nM. With `C=CC(=O)Nc1ccc2sc(N3CCC[C@@H](Nc4nc5ccc(-c6cn[nH]c6)c(C)n5n4)C3)nc2c1` [Example 29, (R)-N-(2-(3-((5-Methyl-6-(1H-pyrazol-4-yl)-[1,2,4]triazolo[1,5-a]pyridin-2-yl)amino)piperidin-1-yl)benzo[d]thiazol-5-yl)acrylamide] the IC50 was under 50 nM. Compound `C=CC(=O)Nc1ccc(C(=O)N2CC[C@@H](Nc3nc4ccc(-c5cn[nH]c5)c(C(F)(F)F)n4n3)C2)cc1` [Example 30, (R)-N-(4-(3-((6-(1H-Pyrazol-4-yl)-5-(trifluoromethyl)-[1,2,4]triazolo[1,5-a]pyridin-2-yl)amino)pyrrolidine-1-carbonyl)phenyl)acrylamide] has an IC50 of under 50 nM. Compound `C=C(F)C(=O)Nc1ccc(C(=O)N2CC[C@@H](Nc3nc4cc(-c5cn[nH]c5)ccn4n3)C2)cc1` [Example 31, (R)-N-(4-(3-((7-(1H-Pyrazol-4-yl)-[1,2,4]triazolo[1,5-a]pyridin-2-yl)amino)pyrrolidine-1-carbonyl)phenyl)-2-fluoroacrylamide] has an IC50 of under 50 nM. `C=C(F)C(=O)Nc1ccc(C(=O)N2CC[C@@H](Nc3nc4c(C)c(-c5cn[nH]c5)ccn4n3)C2)cc1` [Example 32, (R)-2-Fluoro-N-(4-(3-((8-methyl-7-(1H-pyrazol-4-yl)-[1,2,4]triazolo[1,5-a]pyridin-2-yl)amino)pyrrolidine-1-carbonyl)phenyl)acrylamide] showed an IC50 of under 50 nM. `CC#CC(=O)Nc1ccc(C(=O)N2CC[C@@H](Nc3nc4c(C)c(-c5cn[nH]c5)ccn4n3)C2)cc1` [Example 33, (R)-N-(4-(3-((8-Methyl-7-(1H-pyrazol-4-yl)-[1,2,4]triazolo[1,5-a]pyridin-2-yl)amino)pyrrolidine-1-carbonyl)phenyl)but-2-ynamide] showed an IC50 of under 50 nM. For `C=CC(=O)Nc1ccc2c(c1)C(=O)N([C@H]1CCC[C@@H](Nc3nc4ccc(-c5cn[nH]c5)c(C(F)(F)F)n4n3)C1)C2` [Example 34, N-(2-((1S,3R)-3-((6-(1H-pyrazol-4-yl)-5-(trifluoromethyl)-[1,2,4]triazolo[1,5-a]pyridin-2-yl)amino)cyclohexyl)-3-oxoisoindolin-5-yl)acrylamide], the IC50 was under 50 nM. `C=CC(=O)Nc1ccc2sc(N3CCC[C@@H](Nc4nc5ccc(-c6cn[nH]c6)c(C(F)(F)F)n5n4)C3)nc2c1` [Example 35, (R)-N-(2-(3-((6-(1H-pyrazol-4-yl)-5-(trifluoromethyl)-[1,2,4]triazolo[1,5-a]pyridin-2-yl)amino)piperidin-1-yl)benzo[d]thiazol-5-yl)acrylamide] gave an IC50 of under 50 nM. `C=CC(=O)Nc1ccc2c(c1)nc(N1CCC[C@@H](Nc3nc4ccc(-c5cn[nH]c5)c(C(F)(F)F)n4n3)C1)n2C` [Example 36, (R)-N-(2-(3-((6-(1H-pyrazol-4-yl)-5-(trifluoromethyl)-[1,2,4]triazolo[1,5-a]pyridin-2-yl)amino)piperidin-1-yl)-1-methyl-1H-benzo[d]imidazol-5-yl)acrylamide] showed an IC50 of under 50 nM. In the case of `C=CC(=O)Nc1cnc(N2CCC[C@@H](Nc3nc4ccc(-c5cn[nH]c5)c(C(C)C)n4n3)C2)c(C)c1` [Example 37, (R)-N-(6-(3-((5-isopropyl-6-(1H-pyrazol-4-yl)-[1,2,4]triazolo[1,5-a]pyridin-2-yl)amino)piperidin-1-yl)-5-methylpyridin-3-yl)acrylamide], the IC50 is reported as under 50 nM. `C=CC(=O)Nc1cnc(N2CCC[C@@H](Nc3nc4ccc(-c5cn[nH]c5)c(C(F)(F)F)n4n3)C2)c(C)c1` [Example 38, (R)-N-(6-(3-((6-(1H-pyrazol-4-yl)-5-(trifluoromethyl)-[1,2,4]triazolo[1,5-a]pyridin-2-yl)amino)piperidin-1-yl)-5-methylpyridin-3-yl)acrylamide] showed an IC50 of under 50 nM.
